{
  "source": "paper PMC3914891",
  "about": "“Pentacyclic Nitrofurans with In Vivo Efficacy and Activity against Nonreplicating Mycobacterium tuberculosis” (PLoS ONE, 2014)",
  "key": {"[1]": {"system": "9a resistant clones of M. tuberculosis H37Rv", "assay": "microbe, parasite or virus in culture", "type": "cell-based, Mycobacterium tuberculosis"}, "[2]": {"system": "H37Rv-T3", "type": "cell-based, M. tuberculosis"}, "[3]": {"system": "H37Rv-5A1", "type": "cell-based, M. tuberculosis"}, "[4]": {"system": "H37Rv-14A1", "type": "cell-based, M. tuberculosis"}, "[5]": {"system": "M. tuberculosis H37Rv", "type": "cell-based, Mycobacterium tuberculosis"}},
  "data": [
    {"smiles": "CC[C@@H](CO)NCCN[C@@H](CC)CO", "note": "[Ethambutol]", "values": [
      {"measurement": "sensitivity of 9a resistant clones to the drug", "setting": "[1]", "value": "retained sensitivity"}
    ]},
    {"smiles": "CO[C@H]1/C=C/O[C@@]2(C)Oc3c(C)c(O)c4c(O)c(c(/C=N/N5CCN(C)CC5)c(O)c4c3C2=O)NC(=O)/C(C)=C\\C=C\\[C@H](C)[C@H](O)[C@@H](C)[C@@H](O)[C@@H](C)[C@H](OC(C)=O)[C@@H]1C", "note": "[Rifampin]", "values": [
      {"measurement": "sensitivity of 9a resistant clones to the drug", "setting": "[1]", "value": "retained sensitivity"}
    ]},
    {"smiles": "CC1COc2c(N3CCN(C)CC3)c(F)cc3c(=O)c(C(=O)O)cn1c23", "note": "(stereo not drawn) [ofloxacin]", "values": [
      {"measurement": "sensitivity of 9a resistant clones to the drug", "setting": "[1]", "value": "retained sensitivity"}
    ]},
    {"smiles": "O=[N+]([O-])c1ccc(C2=NOC(c3ccc(N4CCOCC4)cc3)C2)o1", "note": "(stereo not drawn) [Compound 2]", "values": [
      {"measurement": "Cross resistance profile, Clone # 1", "setting": "[1]", "value": "R"},
      {"measurement": "Cross resistance profile, Clone # 2", "setting": "[1]", "value": "R"},
      {"measurement": "Cross resistance profile, Clone # 3", "setting": "[1]", "value": "R"},
      {"measurement": "Cross resistance profile, Clone # 4", "setting": "[1]", "value": "R"},
      {"measurement": "Cross resistance profile, Clone # 5", "setting": "[1]", "value": "R"},
      {"measurement": "Cross resistance profile, Clone # 6", "setting": "[1]", "value": "R"},
      {"measurement": "Cross resistance profile, Clone # 7", "setting": "[1]", "value": "R"},
      {"measurement": "Cross resistance profile, Clone # 8", "setting": "[1]", "value": "R"},
      {"measurement": "Cross resistance profile, Clone # 9", "setting": "[1]", "value": "R"},
      {"measurement": "Cross resistance profile, Parent", "setting": "[1]", "value": "S"}
    ]},
    {"smiles": "C[C@]1(COc2ccc(N3CCC(Oc4ccc(OC(F)(F)F)cc4)CC3)cc2)Cn2cc([N+](=O)[O-])nc2O1", "note": "[OPC-67683]", "values": [
      {"measurement": "Cross resistance profile, Clone # 1", "setting": "[1]", "value": "S"},
      {"measurement": "Cross resistance profile, Clone # 2", "setting": "[1]", "value": "S"},
      {"measurement": "Cross resistance profile, Clone # 3", "setting": "[1]", "value": "S"},
      {"measurement": "Cross resistance profile, Clone # 4", "setting": "[1]", "value": "S"},
      {"measurement": "Cross resistance profile, Clone # 5", "setting": "[1]", "value": "R"},
      {"measurement": "Cross resistance profile, Clone # 6", "setting": "[1]", "value": "S"},
      {"measurement": "Cross resistance profile, Clone # 7", "setting": "[1]", "value": "S"},
      {"measurement": "Cross resistance profile, Clone # 8", "setting": "[1]", "value": "S"},
      {"measurement": "Cross resistance profile, Clone # 9", "setting": "[1]", "value": "S"},
      {"measurement": "Cross resistance profile, Parent", "setting": "[1]", "value": "S"}
    ]},
    {"smiles": "CC(=O)NC[C@H]1CN(c2ccc(N3CCOCC3)c(F)c2)C(=O)O1", "note": "[Linezolid]", "values": [
      {"measurement": "sensitivity of 9a resistant clones to the drug", "setting": "[1]", "value": "retained sensitivity"}
    ]},
    {"smiles": "O=[N+]([O-])c1cn2c(n1)OC[C@@H](OCc1ccc(OC(F)(F)F)cc1)C2", "note": "[PA-824]", "values": [
      {"measurement": "MIC", "setting": "[2]", "value": 100, "unit": "µg/mL"},
      {"measurement": "MIC", "setting": "[3]", "value": 50, "unit": "µg/mL"},
      {"measurement": "MIC", "setting": "[4]", "value": 50, "unit": "µg/mL"},
      {"measurement": "Cross resistance profile, Clone # 1", "setting": "[1]", "value": "S"},
      {"measurement": "Cross resistance profile, Clone # 2", "setting": "[1]", "value": "S"},
      {"measurement": "Cross resistance profile, Clone # 3", "setting": "[1]", "value": "S"},
      {"measurement": "Cross resistance profile, Clone # 4", "setting": "[1]", "value": "S"},
      {"measurement": "Cross resistance profile, Clone # 5", "setting": "[1]", "value": "R"},
      {"measurement": "Cross resistance profile, Clone # 6", "setting": "[1]", "value": "S"},
      {"measurement": "Cross resistance profile, Clone # 7", "setting": "[1]", "value": "S"},
      {"measurement": "Cross resistance profile, Clone # 8", "setting": "[1]", "value": "S"},
      {"measurement": "Cross resistance profile, Clone # 9", "setting": "[1]", "value": "S"},
      {"measurement": "Cross resistance profile, Parent", "setting": "[1]", "value": "S"}
    ]},
    {"smiles": "[H]/N=C(/N)N[C@H]1[C@H](O)[C@@H](O)[C@H](O[C@@H]2O[C@@H](C)[C@](O)(C=O)[C@H]2O[C@@H]2O[C@@H](CO)[C@H](O)[C@@H](O)[C@@H]2NC)[C@@H](N/C(N)=N\\[H])[C@@H]1O", "note": "[Streptomycin]", "values": [
      {"measurement": "sensitivity of 9a resistant clones to the drug", "setting": "[1]", "value": "retained sensitivity"}
    ]},
    {"smiles": "O=[N+]([O-])c1ccc(C2=NOC(c3ccc(N4CCC(Oc5ccc(OC(F)(F)F)cc5)CC4)cc3)C2)o1", "note": "(stereo not drawn) [Compound 9a, 3-(5-Nitrofuran-2-yl)-5-(4-(4-(4-(trifluoromethoxy)phenoxy)piperidin-1-yl)phenyl)-4,5-dihydroisoxazole]", "values": [
      {"measurement": "MIC", "setting": "[2]", "value": 0.1, "unit": "µg/mL"},
      {"measurement": "MIC", "setting": "[3]", "value": 0.05, "unit": "µg/mL"},
      {"measurement": "MIC", "setting": "[4]", "value": 0.1, "unit": "µg/mL"},
      {"measurement": "frequency of spontaneous resistance", "setting": "[5]", "value": "3×10^−7"},
      {"measurement": "Cross resistance profile, Clone # 1", "setting": "[1]", "value": "R"},
      {"measurement": "Cross resistance profile, Clone # 2", "setting": "[1]", "value": "R"},
      {"measurement": "Cross resistance profile, Clone # 3", "setting": "[1]", "value": "R"},
      {"measurement": "Cross resistance profile, Clone # 4", "setting": "[1]", "value": "R"},
      {"measurement": "Cross resistance profile, Clone # 5", "setting": "[1]", "value": "R"},
      {"measurement": "Cross resistance profile, Clone # 6", "setting": "[1]", "value": "R"},
      {"measurement": "Cross resistance profile, Clone # 7", "setting": "[1]", "value": "R"},
      {"measurement": "Cross resistance profile, Clone # 8", "setting": "[1]", "value": "R"},
      {"measurement": "Cross resistance profile, Clone # 9", "setting": "[1]", "value": "R"},
      {"measurement": "Cross resistance profile, Parent", "setting": "[1]", "value": "S"},
      {"measurement": "MIC", "setting": "[1]; Mycobacterium tuberculosis, H37RV", "value": "> 3.13", "unit": "µg/mL"}
    ]},
    {"smiles": "NNC(=O)c1ccncc1", "note": "[Isoniazid]", "values": [
      {"measurement": "sensitivity of 9a resistant clones to the drug", "setting": "[1]", "value": "retained sensitivity"}
    ]}
  ]
}
